# Oligonucleotides are written 5' to 3', each unit as a sugar letter and its base; * is a phosphorothioate linkage, no mark a phosphodiester; rarer units and linkages stand in square brackets, end groups in braces. Plain capitals give the bases only. {ppp} = triphosphate group; r = 2'-OH (RNA)
# System: human primary monocytes
# Assay: IFN-α production in human primary monocytes transfected with RNA (ELISA)
# Type: cell-based
# Settings: for IFN-α-inducing activity conferred by the 5′ 4-nucleotide sequence: adenosine-initiated in vitro transcribed RNA oligonucleotides, FIG. 13; for IFN-α induction (*100%) mean: monocytes from three donors, 36 hours after transfection, normalized to the mean induction level of all oligonucleotides (=100%); for IFN-α production in monocytes: 200 ng RNA transfected, ELISA
Substance,IFN-α-inducing activity conferred by the 5′ 4-nucleotide sequence,IFN-α induction (*100%) mean,also measured
"aguaggggac acacacacac acacacacac (AGUAGGGGACACACACACACACACACACAC; RNA, 5' {ppp}, backbone not given here) [SEQ ID No. 158]",highest IFN-α-inducing activity,1.22 *100%,–
"aaguggggac acacacacac acacacacac (AAGUGGGGACACACACACACACACACACAC; RNA, 5' {ppp}, backbone not given here) [SEQ ID No. 174]",highest IFN-α-inducing activity,1.40 *100%,–
"aagaggggac acacacacac acacacacac (AAGAGGGGACACACACACACACACACACAC; RNA, 5' {ppp}, backbone not given here) [SEQ ID No. 134]",–,0.95 *100%,–
"aaagggggac acacacacac acacacacac (AAAGGGGGACACACACACACACACACACAC; RNA, 5' {ppp}, backbone not given here) [SEQ ID No. 173]",highest IFN-α-inducing activity,1.40 *100%,–
5′-pppGCUUAACCUGUCCUUCAAU-3′ [RNA9.2s-1G],–,–,"reduction in IFN-α induction compared with RNA9.2s-0A (monocytes, 200 ng, 24 hours): approximately 25%"
"aaccggggac acacacacac acacacacac (AACCGGGGACACACACACACACACACACAC; RNA, 5' {ppp}, backbone not given here) [SEQ ID No. 156]",highest IFN-α-inducing activity,1.20 *100%,–
"auauggggac acacacacac acacacacac (AUAUGGGGACACACACACACACACACACAC; RNA, 5' {ppp}, backbone not given here) [SEQ ID No. 129]",–,0.89 *100%,–
"acagggggac acacacacac acacacacac (ACAGGGGGACACACACACACACACACACAC; RNA, 5' {ppp}, backbone not given here) [SEQ ID No. 150]",highest IFN-α-inducing activity,1.12 *100%,–
"acaaggggac acacacacac acacacacac (ACAAGGGGACACACACACACACACACACAC; RNA, 5' {ppp}, backbone not given here) [SEQ ID No. 142]",highest IFN-α-inducing activity,1.01 *100%,–
5′-pppGGGAGACAGGGGGGGGGGGGGGGGGGGGGGG-3′ [tri-poly G],–,–,IFN-α production in monocytes (24 hours): equally potent
"5′-PPPGGG AGACAGGUUUUUUUUUUUUUUUUUUUUU-3′ (GGGAGACAGGUUUUUUUUUUUUUUUUUUUUU; RNA, 5' {ppp}, backbone not given here) [tri-poly U]",–,–,IFN-α production in monocytes (24 hours): equally potent
"agacggggac acacacacac acacacacac (AGACGGGGACACACACACACACACACACAC; RNA, 5' {ppp}, backbone not given here) [SEQ ID No. 116]",–,0.62 *100%,–
"augcggggac acacacacac acacacacac (AUGCGGGGACACACACACACACACACACAC; RNA, 5' {ppp}, backbone not given here) [SEQ ID No. 159]",highest IFN-α-inducing activity,1.23 *100%,–
"agcgggggac acacacacac acacacacac (AGCGGGGGACACACACACACACACACACAC; RNA, 5' {ppp}, backbone not given here) [SEQ ID No. 115]",–,0.52 *100%,–
"auguggggac acacacacac acacacacac (AUGUGGGGACACACACACACACACACACAC; RNA, 5' {ppp}, backbone not given here) [SEQ ID No. 153]",highest IFN-α-inducing activity,1.15 *100%,–
"agagggggac acacacacac acacacacac (AGAGGGGGACACACACACACACACACACAC; RNA, 5' {ppp}, backbone not given here) [SEQ ID No. 114]",–,0.50 *100%,–
"aaggggggac acacacacac acacacacac (AAGGGGGGACACACACACACACACACACAC; RNA, 5' {ppp}, backbone not given here) [SEQ ID No. 149]",highest IFN-α-inducing activity,1.11 *100%,–
"agggggggac acacacacac acacacacac (AGGGGGGGACACACACACACACACACACAC; RNA, 5' {ppp}, backbone not given here) [SEQ ID No. 111]",–,0.22 *100%,–

Substance,IFN-α-inducing activity conferred by the 5′ 4-nucleotide sequence,IFN-α induction (*100%) mean,also measured
"agaaggggac acacacacac acacacacac (AGAAGGGGACACACACACACACACACACAC; RNA, 5' {ppp}, backbone not given here) [SEQ ID No. 165]",highest IFN-α-inducing activity,1.29 *100%,–
"aggcggggac acacacacac acacacacac (AGGCGGGGACACACACACACACACACACAC; RNA, 5' {ppp}, backbone not given here) [SEQ ID No. 131]",–,0.91 *100%,–
5′-pppGGGGCUGACCCUGAAGUUCAUCUUCCC-3′ [27-mer],–,–,"IFN-α induction level (24 hours after stimulation, five donors, mean±SEM): 5876 ± 1785 pg/mL"
"aguuggggac acacacacac acacacacac (AGUUGGGGACACACACACACACACACACAC; RNA, 5' {ppp}, backbone not given here) [SEQ ID No. 168]",highest IFN-α-inducing activity,1.32 *100%,–
"aucaggggac acacacacac acacacacac (AUCAGGGGACACACACACACACACACACAC; RNA, 5' {ppp}, backbone not given here) [SEQ ID No. 160]",highest IFN-α-inducing activity,1.24 *100%,–
tri-GFPds: annealed dsRNA molecule of tri-GFPs (SEQ ID NO: 341) and tri-GFPa (SEQ ID NO: 348) (sense {ppp}-rGrGrGrGrCrUrGrArCrCrCrUrGrArArGrUrUrCrArUrCrUrU; antisense {ppp}-rGrGrGrGrArUrGrArArCrUrUrCrArGrGrGrUrCrArGrCrUrU; in vitro transcribed strands annealed as dsRNA),–,–,IFN-α production in monocytes (24 hours): comparable levels of IFN-α; IFN-α inducing activity after cleavage of the 5′ overhang by RNAse T1 (monocytes): completely abolished the IFN-α inducing activity
5′-pppAGGGAAGCGGGCAUGCGGCCAGCCAUAGCCGAUCA-3′ [AΦ6.5-35 n],–,–,IFN-α production in monocytes (24 hours): clear superiority
"aacaggggac acacacacac acacacacac (AACAGGGGACACACACACACACACACACAC; RNA, 5' {ppp}, backbone not given here) [SEQ ID No. 166]",highest IFN-α-inducing activity,1.30 *100%,–
"acauggggac acacacacac acacacacac (ACAUGGGGACACACACACACACACACACAC; RNA, 5' {ppp}, backbone not given here) [SEQ ID No. 148]",highest IFN-α-inducing activity,1.11 *100%,–
"auaaggggac acacacacac acacacacac (AUAAGGGGACACACACACACACACACACAC; RNA, 5' {ppp}, backbone not given here) [SEQ ID No. 127]",–,0.82 *100%,–
"aagcggggac acacacacac acacacacac (AAGCGGGGACACACACACACACACACACAC; RNA, 5' {ppp}, backbone not given here) [SEQ ID No. 157]",highest IFN-α-inducing activity,1.22 *100%,–
"acucggggac acacacacac acacacacac (ACUCGGGGACACACACACACACACACACAC; RNA, 5' {ppp}, backbone not given here) [SEQ ID No. 137]",–,0.98 *100%,–
"agccggggac acacacacac acacacacac (AGCCGGGGACACACACACACACACACACAC; RNA, 5' {ppp}, backbone not given here) [SEQ ID No. 128]",–,0.87 *100%,–
"acgcggggac acacacacac acacacacac (ACGCGGGGACACACACACACACACACACAC; RNA, 5' {ppp}, backbone not given here) [SEQ ID No. 147]",highest IFN-α-inducing activity,1.08 *100%,–
"acacggggac acacacacac acacacacac (ACACGGGGACACACACACACACACACACAC; RNA, 5' {ppp}, backbone not given here) [SEQ ID No. 135]",–,0.95 *100%,–
"aauuggggac acacacacac acacacacac (AAUUGGGGACACACACACACACACACACAC; RNA, 5' {ppp}, backbone not given here) [SEQ ID No. 119]",–,0.67 *100%,–
"auccggggac acacacacac acacacacac (AUCCGGGGACACACACACACACACACACAC; RNA, 5' {ppp}, backbone not given here) [SEQ ID No. 141]",highest IFN-α-inducing activity,1.01 *100%,–
5′-pppAACCUGUCCUUCAAUUACC-3′ [RNA9.2s-5A],–,–,IFN-α production in monocytes (24 hours): paralleled RNA9.2-0A
